How the values were obtained:
Format in all cases: cell-based
[1] = tested on: 3 HPV-positive and 3 HPV-negative cell lines; assay: Immunoblot of cleaved PARP and cleaved caspase-3; conditions: 72 hours or 2 doubling times
Procedure: BrdU positive apoptotic cells were detected and quantified. The bar graph indicates the percentage of apoptotic cells with fragmented DNA in HPV-positive and HPV-negative cell lines. Values are the means±the standard deviations for 3 independent experiments. FIG. 2B and FIG. 2C show immunoblots of cleaved PARP (Cl. PARP) and cleaved caspase-3 (Cl. […] UM47, UMSCC47; GAPDH, glyceraldehyde 3-phosphate dehydrogenase. Western blot analysis was performed as described previously (Ferrarotto, et al., Clin Cancer Res 2016; 22(7):1674-86). In brief, cells were lysed with ice-cold lysis buffer, and the lysates were centrifuged at 20,000×g for 10 minutes at 4° C. Cell lysates containing equal amounts of protein were resolved using sodium dodecyl sulfate-polyacrylamide gel electrophoresis, transferred to nitrocellulose membranes, and incubated with different primary antibodies. Protein expression was detected using a horseradish peroxidase-conjugated secondary antibody (Bio-Rad, Hercules, CA) and electrochemiluminescence reagent (Amersham Biosciences, Pittsburgh, PA).

[2] = tested on: HPV-negative cancer cell lines (UMSCC19, FaDu, and HN31); assay: BrdU-TUNEL apoptosis assay, HPV-negative cell lines; conditions: 50 nmol/L barasertib or 200 nmol/L alisertib, 72 hours or 2 doubling times
Procedure: BrdU positive apoptotic cells were detected and quantified. The bar graph indicates the percentage of apoptotic cells with fragmented DNA in HPV-positive and HPV-negative cell lines. Values are the means±the standard deviations for 3 independent experiments. FIG. 2B and FIG. 2C show immunoblots of cleaved PARP (Cl. PARP) and cleaved caspase-3 (Cl. Caspase-3) levels in 3-HPV positive and 3 HPV-negative cell lines after barasertib or alisertib treatment for 2 doubling times (FIG. 2B) or 72 hours (FIG. 2C). […] UM47, UMSCC47; GAPDH, glyceraldehyde 3-phosphate dehydrogenase.
To measure apoptosis, TUNEL staining was performed with an APO-BRDU Kit (BD Biosciences, San Jose, CA) and annexin V/propidium iodide staining with an FITC Annexin V Apoptosis Detection Kit PE (eBioscience, San Diego, CA) as described previously (Kalu, et al., Cancer Lett 2018; 431:64-72). […] Data were acquired with a 3-laser, 10-color Gallios flow cytometer (Beckman Coulter, Brea, CA) and analyzed using Kaluza software, RRID:SCR_016182 (Beckman Coulter, Brea, CA). […] Briefly, after drug treatment, cells were incubated with Senescence Green Probe, a fluorescence-based reagent that contains 2 galactoside moieties that make it specific to […]. The enzyme-cleaved product is retained within the cell, and it emits a fluorogenic signal that was measured at 490/514 nm using a flow cytometer. […]

[3] = tested on: 16 HPV-positive and 17 HPV-negative HNSCC and cervical squamous cancer cell lines; assay: High-throughput drug screen (HTDS), whole panel, comparison by HPV status; conditions: AOC_LD as a dichotomous variable
Procedure: The concordance correlation coefficient was computed to assess the reproducibility of the normalized growth rates of the 2 replicates. […] A chi-square test was applied to compare drug classification and the cluster membership. The Fisher exact test was applied to compare mutations status (wild-type and mutant) and drugs' response data (sensitive and resistant).
The effects of 864 unique drugs from 51 classes was tested in 16 HPV-positive and 17 HPV-negative HNSCC and cervical squamous cancer cell lines (Table 2) that were characterized previously (Kaiu, et al., Oncotarget 2017; 8(49):86369-83).

[4] = tested on: HN31 cells stably transfected with an E7 plasmid; assay: Apoptosis in HPV-negative cells overexpressing E7; conditions: 300 nmol/L, 24 hours
Procedure: Each data point represents 1 cell line. Box plots show the median pRb […] levels and 95% confidence intervals across all cell lines in the category. t-test P=0.0097. FIG. 4B, HPV-negative HNSCC cells (HN31, UMSCC4, and MDA886LN) were infected with distinct, lentivirus-based shRNAs (Sh2, Sh4, and Sh6) to stably knock down the expression of RB1 or were treated with control (Ctrl) shRNA. Cells were then treated with 300 nmol/L alisertib for 24 hours before annexin V-PE/7AAD staining and analysis with flow cytometry. The bar graph represents the ratio of apoptosis (late plus early) among different groups. Values are the means±the standard deviations for 3 independent experiments. *P<0.05; **P<0.005; unpaired, 2-tailed Student t-test. FIG. 4C, cells from FIG. 4B were treated with 300 nmol/L alisertib for 24 hours before lysis and immunoblotting with the indicated antibodies. FIG. 4D-E, HN31 cells were stably transfected with an E7 plasmid and treated with 300 nmol/L alisertib for 24 hours before lysis and immunoblotting with (FIG. 4D) the indicated antibodies or (FIG. 4E) annexin-PE staining to measure apoptosis. Values are the means±the standard deviations for 3 independent experiments. ** P≤0.01; *** P≤0.001. FIG. 4F, two HPV-positive cell lines were transfected with 10 nmol/L siRNA oligonucleotides specific to E7 or with control oligonucleotides. […]

## COc1cc(Nc2ncc3c(n2)-c2ccc(Cl)cc2C(c2c(F)cccc2OC)=NC3)ccc1C(=O)O [ALISERTIB, alisertib]
[1]
  caspase-3 activation and PARP cleavage: selective caspase-3 activation and PARP cleavage in HPV-positive cancer cell lines
[2]
  apoptosis (TUNEL): no appreciable levels of apoptosis
[3]
  efficacy in HPV-positive vs HPV-negative cell lines: tended to be more effective in HPV-positive cell lines
[4]
  apoptosis (cleaved caspase-3, PARP, annexin V): selectively enhanced apoptosis
